This note sets out measurements from patent publication US20060188507A1, “Methods for identifying chemotherapeutic resistance in non-hematopoietic tumors” (priority 2005, published 2006).

The IC50 is the point on the concentration scale where inhibition reaches its midpoint.

Where two headings read alike, the source gives them in different places.

The subject of one experiment is MDA-MB-231 cells. In words: Adriamycin sensitivity of MDA-MB-231 cells. The format is cell-based, human. To be noted: MDA-MB-231 parental line. As for the experimental part: The cells are allowed to attach to the plate overnight and then the media is replaced with media containing an different concentrations of ADR (0 nM, 10 nM, 20 nM, 50 nM, 100 nM, 400 nM, 500 nM, 1 μM, 5 μM, and 10 μM) and the cells are then incubated at 37° C. for 4 days. […] The colonies are the counted and the results expressed as the level of ADR resistance in nM (e.g., ≦400 nM), or EC50, in which 50% of the cells were still alive.

Another experiment relates to HeLa cells. The experiment is described as follows: cells. In kind it is cell-based. The following applies: Homo sapiens, HeLa, read-out: IC50 Results (MTT). As for the experimental part: III. MTT Cytotoxicity Assays. 24 hours post-transfection, siRNA transfected cells were seeded into 96-well plates at 3×10^3 cells/well. The cells were incubated for 16-24 hours. A range of concentrations of the indicated cytotoxic drugs was added and incubation was continued for an additional 48 hours. 20 μL of MTT (10 mg/mL) was added to each well and the plates were further incubated at 37° C. for 4 hours. The dye was solubilized with DMSO and absorbance measured at 570 nm using a multiwell plate reader (WALLAC). The results were expressed as the average of duplicate wells using the plate reader's Prism software (GraphPad).
Using the MTT cytotoxicity assay (as described in Example 3), the IC50 (i.e., the concentration at which 50% of the cells are still viable) of HeLa cells transfected with p16 siRNA for various chemotherapeutic agents was next assessed.

For a further experiment, the system named is MCF7 cells. In words: Adriamycin sensitivity of MCF7 cells. To be noted: for EC50: Homo sapiens.
The test system of a further experiment is p16^INK4a protein. In words: p16 induction after short-term adriamycin exposure (modified SITp16), MCF7 cells. In kind it is cell-based, human. To be noted: 50 nM adriamycin, 36 hour treatment (FIG. 9). The procedure:
Finally, in a modification of the SITp16, an experiment was performed to determine if p16 expression was induced following a short-term exposure of adriamycin-sensitive cells to adriamycin. For these studies, MCF7 cells were treated 3 days with the EC50 amount of adriamycin (i.e., the effective concentration median or middle of a dose response curve -for MCF7 cells and adriamycin, this is 40 nM. (Note that EC50 is the effective concentration median or middle of a dose response curve, while IC50=inhibitory concentrations by 50%. Total cell lysates (i.e., extracts) were then prepared from these adriamycin-treated cells (called MCF7 EC50 Doxo), as well as from an equal number of MCF7 cells (drug sensitive), MCF7/AR (adriamycin-resistant cells), and OVCAR3 cells (an ovarian cancer cell line from a patient who was treated with adriamycin). The lysates were resolved by SDS-PAGE, transferred to a nitrocellulose membrane, and probed with p16^INK4a specific monoclonal antibody (α-p16^INK4a (Ab-4, Neomarkers clone 16P04, JC2 commercially available from Lab Vision, Freemont, Calif.).
Studies were next performed to determine if a short duration of exposure to adriamycin would cause upregulation of p16 expression in MCF7 cells. […]

With `COc1cccc2c1C(=O)c1c(O)c3c(c(O)c1C2=O)C[C@@](O)(C(=O)CO)C[C@@H]3O[C@H]1C[C@H](N)[C@H](O)[C@H](C)O1` [Doxorubicin, doxorubicin], the “ADR concentration to which cell line is sensitive” value is on record as “approximately 200 nM” in the experiment with MDA-MB-231 cells and “approximately 80 nM” in the experiment with MCF7 cells (MCF7 parental line). Further, the IC50 in the experiment with HeLa cells (HeLa cells transfected with GFP siRNA) was 0.113 µM; in the experiment with HeLa cells (HeLa cells transfected with P16 siRNA (p16 siRNA I)), 0.0704 µM. For the same compound, the EC50 in the experiment on MCF7 cells (MCF7, read-out: EC50 (effective concentration median of dose response curve)) was found to be 0.04 µM; in the experiment on MCF7 cells (MCF7, read-out: concentration known to kill 50% of MCF7 drug-sensitive cells) it was 0.05 µM. Besides, the “upregulation of p16 expression after short exposure” value in the experiment with p16^INK4a protein is listed as “did not result in these cells' upregulation of p16 expression”.
